Legend:
Assay in all cases: In-lysate thermal proteome profiling (TPP)
[1] = target: Jurkat cell lysate proteome (Homo sapiens, UniProt Q9UHA4)
Method: (§1) Jurkat cells were grown to a density of 1.0–2.5 × 10⁶ cells/ml. A 100 ml aliquot of the suspension was divided equally into two Falcon tubes and chilled on ice for 2 min. Cells were pelleted by centrifugation at 350×g for 3 min at room temperature. After discarding the supernatant, the combined pellet was resuspended in 25 ml of ice-cold PBS buffer. The washing step—centrifugation at 350×g for 2 min at room temperature, followed by supernatant removal—was further repeated twice. Following the final wash, the cell pellet was resuspended in 1.5 ml of PBS containing 0.4% (v/v) NP40 alternative and flash-frozen in liquid nitrogen. […] The resulting lysate was separated by ultracentrifugation at 100,000×g for 20 min at 4 °C (Beckman Coulter Optima MAX-XP, MLA-80 rotor). The supernatant was carefully collected, snap-frozen in liquid nitrogen, and stored at −80 °C for subsequent analysis.
(§2) Protein concentration was quantified using the Bradford protein assay. […] Following incubation, each aliquot was further subdivided into nine 120 µl portions in PCR tubes. […] For analysis, 75 µl of each supernatant was allocated for mass spectrometry-based thermal protein profiling (TPP), while the remaining 25 µl was used for immunoblotting to assess PDEδ levels.
(§3) For mass spectrometric analysis, sample processing was further proceeded with reduction and alkylation, followed by acetone precipitation and tryptic digestion. Each digested aliquot was then labelled with isobaric TMT reagents (Thermo Fisher Scientific, A52047) corresponding to its specific temperature condition from the thermal shift assay.
(§4) Proteins were considered as stabilised or destabilised when, in all three replicates,
(§5) tailed p-values were determined by applying paired t-test comparing AUC of melting curves
(§6) between DMSO-treated and compound-treated conditions, OR
(§7) least ± 10 % (same direction) compared to the DMSO control.

[2] = target: Jurkat cell lysate proteome (Homo sapiens, UniProt P62899)
Method: as §1, §2, §3, §4, §5, §6, §7

[3] = target: Jurkat cell lysate proteome (Homo sapiens, UniProt O43924); conditions: 10 µM, 15 min
Method: as §1, §2, §3, §4, §5, §6, §7

[4] = target: T1, Jurkat cell lysate proteome (Homo sapiens, UniProt Q99523)
T1 sequence (Q99523 78-831): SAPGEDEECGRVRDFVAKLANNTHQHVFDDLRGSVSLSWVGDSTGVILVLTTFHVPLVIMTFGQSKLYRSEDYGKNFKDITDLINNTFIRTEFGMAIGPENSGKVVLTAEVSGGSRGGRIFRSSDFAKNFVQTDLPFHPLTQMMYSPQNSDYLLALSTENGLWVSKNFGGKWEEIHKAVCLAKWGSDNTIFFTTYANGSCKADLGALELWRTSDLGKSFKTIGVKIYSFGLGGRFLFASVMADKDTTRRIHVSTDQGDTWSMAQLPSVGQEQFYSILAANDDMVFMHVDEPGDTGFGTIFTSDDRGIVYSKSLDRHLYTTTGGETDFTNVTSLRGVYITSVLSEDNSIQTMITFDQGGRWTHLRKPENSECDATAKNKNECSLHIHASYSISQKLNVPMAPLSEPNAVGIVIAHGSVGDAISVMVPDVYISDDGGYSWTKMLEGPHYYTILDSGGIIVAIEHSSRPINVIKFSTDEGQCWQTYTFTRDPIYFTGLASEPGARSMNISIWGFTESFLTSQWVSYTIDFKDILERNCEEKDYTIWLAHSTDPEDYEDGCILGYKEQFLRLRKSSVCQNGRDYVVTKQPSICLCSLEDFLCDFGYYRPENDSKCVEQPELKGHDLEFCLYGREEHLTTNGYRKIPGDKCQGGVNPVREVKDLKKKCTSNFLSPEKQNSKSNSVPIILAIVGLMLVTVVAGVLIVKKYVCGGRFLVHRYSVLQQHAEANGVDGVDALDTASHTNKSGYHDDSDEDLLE
Method: as §1, §2, §3, §4, §5, §6, §7

[5] = target: Jurkat cell lysate proteome (Homo sapiens, UniProt P56134)
Method: as §1, §2, §3, §4, §5, §6, §7

[6] = target: T2, Jurkat cell lysate proteome (Homo sapiens, UniProt Q16854)
T2 sequence (Q16854 40-277): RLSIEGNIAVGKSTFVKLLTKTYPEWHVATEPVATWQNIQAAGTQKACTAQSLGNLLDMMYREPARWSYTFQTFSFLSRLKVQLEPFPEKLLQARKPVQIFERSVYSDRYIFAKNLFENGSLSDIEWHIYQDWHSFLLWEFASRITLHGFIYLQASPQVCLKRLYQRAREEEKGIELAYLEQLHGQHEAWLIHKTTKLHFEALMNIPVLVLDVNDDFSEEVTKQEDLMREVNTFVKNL
Method: as §1, §2, §3, §4, §5, §6, §7

[7] = target: T3, Jurkat cell lysate proteome (Homo sapiens, UniProt P24666)
T3 sequence (P24666 1-158): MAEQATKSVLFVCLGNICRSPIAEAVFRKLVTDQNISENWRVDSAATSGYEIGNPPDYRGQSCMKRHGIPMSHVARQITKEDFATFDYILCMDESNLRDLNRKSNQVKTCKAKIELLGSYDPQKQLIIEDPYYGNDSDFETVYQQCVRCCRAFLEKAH
Method: as §1, §2, §3, §4, §5, §6, §7

[8] = target: T4, Jurkat cell lysate proteome (Homo sapiens, UniProt O95628)
T4 sequence (O95628 1-575): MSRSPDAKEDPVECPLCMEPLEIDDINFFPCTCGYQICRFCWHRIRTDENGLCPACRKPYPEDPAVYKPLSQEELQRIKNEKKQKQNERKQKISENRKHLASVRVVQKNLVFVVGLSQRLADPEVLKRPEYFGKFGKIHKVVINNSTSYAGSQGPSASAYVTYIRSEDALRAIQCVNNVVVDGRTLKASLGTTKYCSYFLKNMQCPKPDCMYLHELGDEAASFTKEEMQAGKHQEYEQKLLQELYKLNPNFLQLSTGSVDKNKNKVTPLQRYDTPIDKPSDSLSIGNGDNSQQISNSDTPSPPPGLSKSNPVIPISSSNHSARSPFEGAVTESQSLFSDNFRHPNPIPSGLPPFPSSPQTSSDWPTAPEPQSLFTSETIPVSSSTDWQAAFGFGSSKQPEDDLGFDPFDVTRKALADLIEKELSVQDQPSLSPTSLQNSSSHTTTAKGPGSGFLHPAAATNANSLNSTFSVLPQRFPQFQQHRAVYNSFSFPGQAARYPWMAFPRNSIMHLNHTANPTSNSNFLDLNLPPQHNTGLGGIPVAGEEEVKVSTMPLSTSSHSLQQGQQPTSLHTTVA
Method: as §1, §2, §3, §4, §5, §6, §7

[9] = target: Jurkat cell lysate proteome (Homo sapiens, UniProt O75044)
Method: as §1, §2, §3, §4, §5, §6, §7

[10] = target: Jurkat cell lysate proteome (Homo sapiens, UniProt P49773)
Method: as §1, §2, §3, §4, §5, §6, §7

[11] = target: Jurkat cell lysate proteome (Homo sapiens, UniProt P05388)
Method: as §1, §2, §3, §4, §5, §6, §7

[12] = target: Jurkat cell lysate proteome (Homo sapiens, UniProt P37802)
Method: as §1, §2, §3, §4, §5, §6, §7

[13] = target: Jurkat cell lysate proteome (Homo sapiens, UniProt P62318)
Method: as §1, §2, §3, §4, §5, §6, §7

[14] = 10 µM, 15 min, listed as DeltaTag

Sequence of Jurkat cell lysate proteome (Homo sapiens, UniProt Q9UHA4) (Q9UHA4 whole entry): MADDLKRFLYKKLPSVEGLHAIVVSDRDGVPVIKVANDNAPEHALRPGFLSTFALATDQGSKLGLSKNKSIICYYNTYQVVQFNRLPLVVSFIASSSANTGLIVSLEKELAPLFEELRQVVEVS
Sequence of Jurkat cell lysate proteome (Homo sapiens, UniProt P49773) (P49773 whole entry): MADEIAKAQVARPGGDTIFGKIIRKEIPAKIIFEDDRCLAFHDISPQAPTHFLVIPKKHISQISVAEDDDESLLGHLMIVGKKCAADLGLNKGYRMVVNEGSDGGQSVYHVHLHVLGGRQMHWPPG
Sequence of Jurkat cell lysate proteome (Homo sapiens, UniProt P62318) (P62318 whole entry): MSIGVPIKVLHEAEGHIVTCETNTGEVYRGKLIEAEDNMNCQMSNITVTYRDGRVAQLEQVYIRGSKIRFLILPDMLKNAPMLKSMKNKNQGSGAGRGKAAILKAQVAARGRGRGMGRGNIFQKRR
Sequence of Jurkat cell lysate proteome (Homo sapiens, UniProt P37802) (P37802 whole entry): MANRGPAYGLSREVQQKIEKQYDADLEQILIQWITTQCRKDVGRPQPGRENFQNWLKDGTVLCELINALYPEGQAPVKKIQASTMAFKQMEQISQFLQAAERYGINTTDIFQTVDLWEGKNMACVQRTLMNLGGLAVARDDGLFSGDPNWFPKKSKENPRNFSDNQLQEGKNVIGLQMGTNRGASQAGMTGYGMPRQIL
Sequence of Jurkat cell lysate proteome (Homo sapiens, UniProt P56134) (P56134 whole entry): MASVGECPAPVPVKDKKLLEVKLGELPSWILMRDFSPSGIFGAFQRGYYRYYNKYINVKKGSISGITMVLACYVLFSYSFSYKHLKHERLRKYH
Sequence of Jurkat cell lysate proteome (Homo sapiens, UniProt O43924) (O43924 whole entry): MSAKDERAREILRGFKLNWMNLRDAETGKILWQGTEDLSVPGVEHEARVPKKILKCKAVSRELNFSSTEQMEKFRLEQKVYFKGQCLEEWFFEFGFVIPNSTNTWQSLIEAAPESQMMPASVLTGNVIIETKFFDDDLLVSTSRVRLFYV

Cc1ccc(-n2nc3c(=O)n(CCCCS(=O)(=O)N(CCc4cccc(CCBr)c4)CC4CCNCC4)nc(C)c3c2C)cc1 [6a]
ΔAUC LAMTOR3 ([1]; 10 µM, 15 min): -2.1
ΔI67°C LAMTOR3 ([1]; 10 µM, 15 min): -3 ± 2%
ΔAUC LAMTOR3 [1, 14]: −2.1
ΔTm at 10 µM ([1]; read-out: ΔTm LAMTOR3, 10 µM, 15 min): -2.6 ± 1.4 °C
ΔAUC RPL31 ([2]; 10 µM, 15 min): -2.5
ΔI67°C RPL31 ([2]; 10 µM, 15 min): -6 ± 5%
ΔTm at 10 µM ([2]; read-out: ΔTm RPL31, 10 µM, 15 min): -2.1 ± 0.6 °C
ΔI67°C PDE6D [3]: 21 ± 7%
ΔAUC SORT1 ([4]; 10 µM, 15 min): -3.6
ΔI67°C SORT1 ([4]; 10 µM, 15 min): -16 ± 7%
ΔTm at 10 µM ([4]; read-out: ΔTm SORT1, 10 µM, 15 min): -2.2 ± 2.4 °C
ΔI67°C ATP5J2 ([5]; 10 µM, 15 min): 1 ± 1%
ΔTm at 10 µM ([5]; read-out: ΔTm ATP5J2, 10 µM, 15 min): -2 ± 1 °C
ΔAUC DGUOK ([6]; 10 µM, 15 min): -2.3
ΔI67°C DGUOK ([6]; 10 µM, 15 min): 0 ± 2%
ΔTm at 10 µM ([6]; read-out: ΔTm DGUOK, 10 µM, 15 min): -2.9 ± 1.9 °C
ΔAUC ACP1 ([7]; 10 µM, 15 min): 2.1
ΔI67°C ACP1 ([7]; 10 µM, 15 min): 0 ± 4%
ΔTm at 10 µM ([7]; read-out: ΔTm ACP1, 10 µM, 15 min): 2.3 ± 0.3 °C
ΔAUC CNOT4 ([8]; 10 µM, 15 min): -1.7
ΔI67°C CNOT4 ([8]; 10 µM, 15 min): 0 ± 3%
ΔTm at 10 µM ([8]; read-out: ΔTm CNOT4, 10 µM, 15 min): -2.7 ± 1 °C
ΔAUC SRGAP2 ([9]; 10 µM, 15 min): -2.5
ΔI67°C SRGAP2 ([9]; 10 µM, 15 min): -10 ± 7%
ΔAUC SRGAP2 [9, 14]: −2.5
ΔTm at 10 µM ([9]; read-out: ΔTm SRGAP2, 10 µM, 15 min): -1.3 ± 1.1 °C
ΔAUC HINT1 ([10]; 10 µM, 15 min): 3.6
ΔI67°C HINT1 ([10]; 10 µM, 15 min): 3 ± 6%
ΔTm at 10 µM ([10]; read-out: ΔTm HINT1, 10 µM, 15 min): 4 ± 1.4 °C
ΔAUC RPLP0 ([11]; 10 µM, 15 min): -2.9
ΔI67°C RPLP0 ([11]; 10 µM, 15 min): -4 ± 5%
ΔTm at 10 µM ([11]; read-out: ΔTm RPLP0, 10 µM, 15 min): -5.2 ± 2.7 °C
ΔAUC TAGLN2 ([12]; 10 µM, 15 min): 1.4
ΔI67°C TAGLN2 ([12]; 10 µM, 15 min): -5 ± 9%
ΔTm at 10 µM ([12]; read-out: ΔTm TAGLN2, 10 µM, 15 min): 2.8 ± 0.7 °C
ΔAUC SNRPD3 ([13]; 10 µM, 15 min): -2
ΔI67°C SNRPD3 ([13]; 10 µM, 15 min): -9 ± 11%
ΔTm at 10 µM ([13]; read-out: ΔTm SNRPD3, 10 µM, 15 min): 0.8 ± 0.7 °C
